Experimental data as given in ChEMBL document CHEMBL3886376, “Bicyclic pyridazine compounds as Pim inhibitors” (2015).

Experiments:
[1] = target: Serine/threonine-protein kinase pim-1 (Homo sapiens, UniProt P11309); assay: (§1) PIM Enzyme Assay: The assay for the determination of Pim activity is based on the formation of phosphorylated biotinylated-BAD peptide at the Serine 112 residue (S112) and employs HTRF (homogeneous time resolved fluorescence) technology to detect the product in a 96-well plate format. The phosphorylation of biotinylated-BAD (S112) peptide by full length recombinant Pim-1, Pim-2, or Pim-3 protein was detected with streptavidin:Allophycocyanin (APC) conjugate and a europium (Eu) labeled antibody directed against phosphorylated-BAD (S112). Excitation of Eu by a high energy laser light (337 nm) leads to a transfer of energy to the APC molecule, and results in an emission at 665 nm. The fluorescence is directly proportional to the amount of phosphorylated BAD peptide present in the reaction.Compounds were prepared in DMSO by conducting 3-fold serial dilutions to give a 10-point dosing curve having a high dose of 1 uM. A reference compound was included on each assay plate in order to validate that plate.
[2] = target: Serine/threonine-protein kinase pim-2 (Homo sapiens, UniProt Q9P1W9); assay: as §1

**Q.** `N[C@H]1CCC[C@@H](c2ccncc2Nc2ncc3ccc(-c4c(F)cccc4F)nn23)C1` (mixture of isomers) was tested. Which IC50 [1] did it give?
**A.** 4 nM

**Q.** What about the IC50 [2] of the same molecule?
**A.** 27 nM
